The test concerns the target T1, Thyroid hormone receptor alpha (Homo sapiens, UniProt P10827).
T1 sequence (P10827 whole entry): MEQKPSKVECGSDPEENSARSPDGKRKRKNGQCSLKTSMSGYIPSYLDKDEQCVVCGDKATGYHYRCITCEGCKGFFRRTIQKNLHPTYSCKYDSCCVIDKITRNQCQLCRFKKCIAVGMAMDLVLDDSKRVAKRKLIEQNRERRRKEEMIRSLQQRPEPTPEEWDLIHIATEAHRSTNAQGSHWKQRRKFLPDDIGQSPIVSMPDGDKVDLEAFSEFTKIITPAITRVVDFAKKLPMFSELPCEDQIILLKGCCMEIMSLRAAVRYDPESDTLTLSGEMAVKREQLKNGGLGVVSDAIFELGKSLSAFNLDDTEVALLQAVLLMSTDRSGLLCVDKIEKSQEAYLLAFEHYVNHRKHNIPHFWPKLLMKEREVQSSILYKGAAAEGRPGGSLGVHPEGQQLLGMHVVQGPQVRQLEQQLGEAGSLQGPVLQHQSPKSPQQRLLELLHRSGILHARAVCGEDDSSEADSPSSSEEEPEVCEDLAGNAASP
The test can be described thus: TRalpha-Binding Assay and Thyroid Response Element (TRAFalpha1) Reporter Assay. Particulars: pH 7; 4 °C. An excerpt: EC50 is the concentration of compound required to inhibit 50% of T3-induced TRalpha-activation in CHOK1 cells stably transfected with hTRalpha using alkaline phosphatase reporter assay.
In general terms: Reporter assays use an easily measured gene product as a stand-in for the process of interest.

SMILES strings stand for the structures.

For orientation: EC50 means the concentration that produces a half-maximal response. High values mean a need for much substance, low ones an effect from little substance. `CC(C)c1cc(Oc2c(Br)cc(CCC(=O)O)cc2Br)cc(/C=C/c2ccncc2)c1O` [3-{3,5-dibromo-4-[4-hydroxy-3-(propan-2-yl)-5-[(E)-2-(pyridin-4-yl)ethenyl]phenoxy]phenyl}propanoic acid] showed an EC50 of 32 nM.

These data come from BindingDB's records for doi:10.1021/jm060521i (Karo Bio, 2006).
